In patent US20070128217A1 (priority 2003, published 2007):

Assays:
[1] = system: recombinant human anti-SARS-CoV antibody 03-018; format: binding; design: Binding of antibody 03-018 to linear peptides of the N protein of SARS-CoV Urbani / Binding of antibody 03-018 to looped/cyclic peptides of the N protein of SARS-CoV Urbani: unit not given here
[2] = system: antibodies in sera from SARS patients (sera 1a, 1b, 2, 6, 37, 62, London, SARS-yellow, SARS-green); format: binding, human; design: Binding of serum 6 to linear peptides of protein X1 of SARS-CoV Urbani / Binding of serum 37 to linear peptides of protein X1 of SARS-CoV Urbani / Binding of serum 6 to looped/cyclic peptide (PEPSCAN-ELISA) / Binding of serum 37 to looped/cyclic peptide (PEPSCAN-ELISA) / Binding of serum 37 to looped/cyclic peptides of protein X1 of SARS-CoV Urbani / Binding of serum 6 to linear peptides of protein X2 / Binding of serum 37 to linear peptides of protein X2 / Binding of serum 37 to looped/cyclic peptides of protein X2 of SARS-CoV Urbani / Binding of serum 6 to linear peptides of protein M of SARS-CoV Urbani / Binding of serum 37 to linear peptides of protein M of SARS-CoV Urbani / Binding of serum 6 to looped/cyclic peptides of protein M of SARS-CoV Urbani / Binding of serum 37 to looped/cyclic peptides of protein M of SARS-CoV Urbani / Binding of serum 6 to linear peptides of protein X3 of SARS-CoV Urbani / Binding of serum 37 to linear peptides of protein X3 of SARS-CoV Urbani / Binding of serum 37 to looped/cyclic peptides of protein X3 of SARS-CoV Urbani / Binding of serum 6 to linear peptides of protein X4 of SARS-CoV Urbani / Binding of serum 37 to linear peptides of protein X4 of SARS-CoV Urbani / Binding of serum 37 to looped/cyclic peptides of protein X4 of SARS-CoV Urbani / Binding of serum 6 to linear peptides of protein X5 of SARS-CoV Urbani / Binding of serum 37 to linear peptides of protein X5 of SARS-CoV Urbani / Binding of serum 37 to looped/cyclic peptides of protein X5 of SARS-CoV Urbani / Binding of serum 6 to linear peptides of protein N of SARS-CoV Urbani / Binding of serum 37 to linear peptides of protein N of SARS-CoV Urbani / Binding of serum 6 to linear peptide (PEPSCAN-ELISA) / Binding of serum 1a to looped/cyclic peptides of protein N of SARS-CoV Urbani / Binding of serum 1b to looped/cyclic peptides of protein N of SARS-CoV Urbani / Binding of serum 2 to looped/cyclic peptides of protein N of SARS-CoV Urbani / Binding of serum 6 to looped/cyclic peptides of protein N of SARS-CoV Urbani / Binding of serum 37 to looped/cyclic peptides of protein N of SARS-CoV Urbani / Binding of serum 62 to looped/cyclic peptides of protein N of SARS-CoV Urbani / Binding of serum London to looped/cyclic peptides of protein N of SARS-CoV Urbani / Binding of serum SARS-green to looped/cyclic peptides of protein N of SARS-CoV Urbani: unit not given here
[3] = system: control sera (pooled serum of ten healthy LUMC hospital workers; commercial negative donor pooled serum from the Dutch bloodbank); format: binding, human; design: Binding of Control serum LUMC to linear peptides / Binding of Control serum Blood-bank to linear peptides / Binding of Control serum LUMC to looped peptides / Binding of Control Serum Blood-Bank to Looped peptides / Binding of Control serum LUMC to linear peptides of the protein M of SARS-CoV Urbani / Binding of Control serum Blood-bank to linear peptides of the protein M of SARS-CoV Urbani / Binding of Control serum LUMC to looped peptides of the protein M of SARS-CoV Urbani / Binding of Control Serum Blood-Bank to Looped peptides of the protein M of SARS-CoV Urbani: unit not given here
[4] = system: rabbit serum obtained by immunizing a rabbit with the SARS-CoV strain Frankfurt 1; format: binding; design: Binding of a rabbit serum to linear peptides / Binding of a rabbit serum to looped peptides / Rabbit serum linear peptides / Rabbit serum looped peptides / Binding of a rabbit serum to linear peptides of protein N of SARS-CoV Urbani (Rabbit serum linear peptides) / Binding of a rabbit serum to looped/cyclic peptides of protein N of SARS-CoV Urbani (Rabbit serum looped peptides): unit not given here

Sequence	Binding of antibody 03-018 to linear peptides of the N protein of SARS-CoV Urbani [1]	Binding of antibody 03-018 to looped/cyclic peptides of the N protein of SARS-CoV Urbani [1]	Binding of serum 1a to linear peptides of protein N of SARS-CoV Urbani [2]	Binding of serum 1a to looped/cyclic peptides of protein N of SARS-CoV Urbani [2]	Binding of serum 1b to linear peptides of protein N of SARS-CoV Urbani [2]	Binding of serum 1b to looped/cyclic peptides of protein N of SARS-CoV Urbani [2]	Binding of serum 2 to linear peptides of protein N of SARS-CoV Urbani [2]	Binding of serum 2 to looped/cyclic peptides of protein N of SARS-CoV Urbani [2]	Binding of serum 6 to linear peptides of protein N of SARS-CoV Urbani [2]	Binding of serum 6 to looped/cyclic peptides of protein N of SARS-CoV Urbani [2]	Binding of serum 37 to linear peptides of protein N of SARS-CoV Urbani [2]	Binding of serum 37 to looped/cyclic peptides of protein N of SARS-CoV Urbani [2]	Binding of serum 62 to linear peptides of protein N of SARS-CoV Urbani [2]	Binding of serum 62 to looped/cyclic peptides of protein N of SARS-CoV Urbani [2]	Binding of serum London to linear peptides of protein N of SARS-CoV Urbani [2]	Binding of serum London to looped/cyclic peptides of protein N of SARS-CoV Urbani [2]	Binding of serum SARS-green to looped/cyclic peptides of protein N of SARS-CoV Urbani [2]	Binding of serum SARS-yellow to looped/cyclic peptides of protein N of SARS-CoV Urbani [2]	Binding of a rabbit serum to linear peptides of protein N of SARS-CoV Urbani (Rabbit serum linear peptides) [4]	Binding of a rabbit serum to looped/cyclic peptides of protein N of SARS-CoV Urbani (Rabbit serum looped peptides) [4]	other results
VRGGDGKMKELSPRW	0.1	0.2	0.2	0.3	0.1	0.2	0.2	0.5	0.2	0.2	0.6	0.6	0.6	0.6	0.4	0.5	0.1	0.3	0.2	0.4	Binding of serum SARS-green to linear peptides of protein N of SARS-CoV Urbani [2]: 0.4; Binding of serum SARS-yellow to linear peptides of protein N of SARS-CoV Urbani [2]: 0.7; Binding of Control Serum Blood-Bank to Looped peptides [3]: 0.7; Binding of Control serum Blood-bank to linear peptides [3]: 0.6; Binding of Control serum LUMC to linear peptides [3]: 0.8; Binding of Control serum LUMC to looped peptides [3]: 0.7
VTKKSAAEASKKPRQ	0.1	0.2	–	0.3	–	0.2	–	0.6	–	0.3	–	0.6	–	0.4	–	0.5	0.6	0.7	0.1	0.6	Recognition of the peptide by sera of SARS-CoV infected individuals, and form (linear, looped/cyclic) in which it is recognized [2]: recognized in linear form; Binding of Control Serum Blood-Bank to Looped peptides [3]: 0.6; Binding of Control serum Blood-bank to linear peptides [3]: 0.9; Binding of Control serum LUMC to linear peptides [3]: 0.9; Binding of Control serum LUMC to looped peptides [3]: 0.7
WYFYYLGTGPEASLP	0.1	0.2	0.3	0.4	0.2	0.3	0.3	0.4	0.2	0.3	0.9	0.7	0.8	0.5	0.5	0.4	0.4	0.5	0.1	0.3	Binding of serum SARS-green to linear peptides of protein N of SARS-CoV Urbani [2]: 0.3; Binding of serum SARS-yellow to linear peptides of protein N of SARS-CoV Urbani [2]: 0.7; Binding of Control Serum Blood-Bank to Looped peptides [3]: 0.6; Binding of Control serum Blood-bank to linear peptides [3]: 0.7; Binding of Control serum LUMC to linear peptides [3]: 0.6; Binding of Control serum LUMC to looped peptides [3]: 0.6
YKTFPPTEPKKDKKK	0.1	0.2	0.2	0.2	0.1	0.1	0.5	0.1	0.2	0.0	0.7	0.4	0.7	0.2	0.5	0.3	0.0	0.2	0.2	0.2	Binding of serum SARS-green to linear peptides of protein N of SARS-CoV Urbani [2]: 0.2; Binding of serum SARS-yellow to linear peptides of protein N of SARS-CoV Urbani [2]: 0.8; Control Serum Blood-Bank Looped peptides [3]: 0.3; Control serum Blood-bank linear peptides [3]: 0.7; Control serum LUMC linear peptides [3]: 0.6; Control serum LUMC looped peptides [3]: 0.3
YLGTGPEASLPYGAN	0.1	0.2	0.2	0.4	0.1	0.3	0.2	0.4	0.2	0.2	0.7	0.8	0.6	0.7	0.5	0.5	0.6	0.6	0.1	0.6	Binding of serum SARS-green to linear peptides of protein N of SARS-CoV Urbani [2]: 0.3; Binding of serum SARS-yellow to linear peptides of protein N of SARS-CoV Urbani [2]: 0.6; Binding of Control Serum Blood-Bank to Looped peptides [3]: 0.7; Binding of Control serum Blood-bank to linear peptides [3]: 0.6; Binding of Control serum LUMC to linear peptides [3]: 0.8; Binding of Control serum LUMC to looped peptides [3]: 0.7
